According to the supplement of paper PMC13380429:

Columns and labels:
Conditions in all cases: 72 h
Calu-3 [1] = experiment: relative viability EC50 (midpoint between 100% and the lowest measured viability); higher = less toxic
Vero E6 [2] = experiment: as above
U2OS [3] = experiment: as above
Caco-2 [4] = experiment: as above
HepG2 [5] = experiment: as above
Calu-3 [6] = experiment: drug sensitivity score (DSS) for viability; higher = more toxic; extreme values may be limits of the assay
Vero E6 [7] = experiment: as above
U2OS [8] = experiment: as above
Caco-2 [9] = experiment: as above
HepG2 [10] = experiment: as above
Calu-3 [11] = experiment: cell viability relative to DMSO; higher = less toxic
Vero E6 [12] = experiment: as above
U2OS [13] = experiment: as above
Caco-2 [14] = experiment: as above
HepG2 [15] = experiment: as above

SMILES | relative viability EC50 (Calu-3 [1]) | relative viability EC50 (Vero E6 [2]) | relative viability EC50 (U2OS [3]) | relative viability EC50 (Caco-2 [4]) | relative viability EC50 (HepG2 [5]) | drug sensitivity score (Calu-3 [6]) | drug sensitivity score (Vero E6 [7]) | drug sensitivity score (U2OS [8]) | drug sensitivity score (Caco-2 [9]) | drug sensitivity score (HepG2 [10]) | cell viability (Calu-3 [11]; 1 nM) | cell viability (Calu-3 [11]; 10 nM) | cell viability (Calu-3 [11]; 100 nM) | cell viability (Calu-3 [11]; 1000 nM) | cell viability (Calu-3 [11]; 10000 nM) | cell viability (Vero E6 [12]; 1 nM) | cell viability (Vero E6 [12]; 10 nM) | cell viability (Vero E6 [12]; 100 nM) | cell viability (Vero E6 [12]; 1000 nM) | cell viability (Vero E6 [12]; 10000 nM) | cell viability (U2OS [13]; 1 nM) | cell viability (U2OS [13]; 10 nM) | cell viability (U2OS [13]; 100 nM) | cell viability (U2OS [13]; 1000 nM) | cell viability (U2OS [13]; 10000 nM) | cell viability (Caco-2 [14]; 1 nM) | cell viability (Caco-2 [14]; 10 nM) | cell viability (Caco-2 [14]; 100 nM) | cell viability (Caco-2 [14]; 1000 nM) | cell viability (Caco-2 [14]; 10000 nM) | cell viability (HepG2 [15]; 1 nM) | cell viability (HepG2 [15]; 10 nM) | cell viability (HepG2 [15]; 100 nM) | cell viability (HepG2 [15]; 1000 nM) | cell viability (HepG2 [15]; 10000 nM)
NC(=O)N1c2ccccc2CC(O)c2ccccc21 (stereo not given) [licarbazepine] | > 10 µM | > 10 µM | > 10 µM | > 10 µM | > 10 µM | 0 | 0 | 0 | 0 | 0 | 98.3% | 99.9% | 96.3% | 105% | 92.1% | 101% | 102% | 104% | 97.6% | 97.8% | 108% | 97.5% | 98.8% | 101% | 102% | 98.3% | 99.5% | 97.8% | 100% | 91.5% | 96.3% | 96.4% | 93.5% | 108% | 99%
CN1C(C(=O)Nc2ccccn2)=C(O)c2sc(Cl)cc2S1(=O)=O [lornoxicam] | > 10 µM | > 10 µM | > 10 µM | > 10 µM | > 10 µM | 0 | 0 | 0 | 0 | 0 | 95.3% | 100% | 107% | 99.8% | 104% | 92.4% | 98.8% | 94.8% | 97.1% | 91.3% | 100% | 93.8% | 102% | 94.7% | 100% | 110% | 95% | 99.9% | 86.6% | 95.5% | 91.1% | 104% | 100% | 104% | 97.4%
CCCCc1nc(Cl)c(CO)n1Cc1ccc(-c2ccccc2-c2nnn[nH]2)cc1 [losartan] | > 10 µM | > 10 µM | > 10 µM | > 10 µM | > 10 µM | 0 | 0 | 0 | 0 | 0 | 103% | 84.4% | 96.2% | 97.5% | 94.6% | 103% | 102% | 102% | 98.1% | 101% | 99.1% | 104% | 96.4% | 105% | 96.5% | 94.1% | 102% | 93.2% | 94.7% | 95.5% | 110% | 116% | 104% | 96.7% | 96.7%
Cc1cccc(CN2CCN(C(c3ccccc3)c3ccc(Cl)cc3)CC2)c1 (stereo not given) [meclizine] | > 10 µM | > 10 µM | > 10 µM | > 10 µM | > 10 µM | 0 | 0 | 0 | 0.2 | 0 | 92.7% | 88.4% | 95.7% | 94.1% | 87.6% | 107% | 105% | 103% | 102% | 97.7% | 96.5% | 98.6% | 93.6% | 101% | 91.6% | 91.9% | 101% | 97.1% | 99.5% | 85.8% | 102% | 108% | 106% | 92.3% | 90%
CC(=O)[C@@]1(O)CC[C@H]2[C@@H]3C[C@H](C)C4=CC(=O)CC[C@]4(C)[C@H]3CC[C@@]21C [medroxyprogesterone] | > 10 µM | > 10 µM | > 10 µM | > 10 µM | > 10 µM | 0 | 0 | 0 | 0 | 0.2 | 86.5% | 104% | 95.6% | 104% | 103% | 105% | 99.5% | 98.1% | 99% | 89% | 105% | 97.3% | 97.5% | 94.4% | 94.8% | 96.8% | 96.7% | 92.4% | 91.7% | 89.1% | 94.7% | 98.5% | 103% | 106% | 84.1%
C[N@+]1(CC2CC2)CC[C@]23c4c5ccc(O)c4O[C@H]2C(=O)CC[C@@]3(O)[C@H]1C5 [methylnaltrexone] | > 10 µM | > 10 µM | > 10 µM | > 10 µM | > 10 µM | 0 | 0 | 0 | 0 | 0 | 104% | 95% | 107% | 97.1% | 103% | 97.3% | 105% | 96.9% | 97.2% | 94.5% | 104% | 95.2% | 98.4% | 97.5% | 99.6% | 101% | 95.6% | 99.8% | 94.2% | 90.8% | 93.2% | 97.7% | 91.9% | 96.8% | 92.3%
Cc1ncc([N+](=O)[O-])n1CCO [metronidazole] | > 10 µM | > 10 µM | > 10 µM | > 10 µM | > 10 µM | 0 | 0 | 0 | 0 | 0 | 97.3% | 95.9% | 109% | 97% | 102% | 96.8% | 99.7% | 96.2% | 93.5% | 100% | 104% | 97.6% | 98.9% | 96.9% | 98% | 100% | 94.4% | 101% | 94.9% | 98.4% | 97.7% | 102% | 111% | 99.8% | 105%
CCOC(=O)Nc1ccc2c(c1)N(C(=O)CCN1CCOCC1)c1ccccc1S2 [moracizine] | > 10 µM | > 10 µM | > 10 µM | > 10 µM | > 10 µM | 0 | 0 | 0 | 0.9 | 0 | 103% | 95.3% | 98.8% | 95.3% | 98.3% | 97.1% | 101% | 96.9% | 98.8% | 96.2% | 98.4% | 104% | 101% | 99% | 96.6% | 101% | 109% | 96.3% | 96.8% | 80.8% | 94.6% | 92.6% | 97.8% | 91.6% | 99.4%
CN1CCOC(c2ccccc2)c2ccccc2C1 (stereo not given) [nefopam] | > 10 µM | > 10 µM | > 10 µM | > 10 µM | > 10 µM | 0 | 0 | 0 | 0 | 0 | 105% | 108% | 96.7% | 91% | 101% | 95.9% | 103% | 98.8% | 102% | 95.1% | 104% | 99.3% | 105% | 100% | 98.7% | 86.6% | 102% | 95.1% | 99.5% | 91.9% | 95.8% | 104% | 96.3% | 101% | 106%
CC(=O)Nc1ncc([N+](=O)[O-])s1 [nithiamide] | > 10 µM | > 10 µM | > 10 µM | > 10 µM | > 10 µM | 0 | 0 | 0 | 0 | 0 | 97.5% | 98.2% | 102% | 110% | 101% | 101% | 99.5% | 100% | 93.4% | 98% | 99.2% | 104% | 97.8% | 103% | 102% | 96.7% | 97.8% | 103% | 105% | 94.1% | 108% | 91.7% | 95.4% | 92.1% | 96.3%
NC(=O)N/N=C/c1ccc([N+](=O)[O-])o1 [nitrofurazone] | > 10 µM | > 10 µM | > 10 µM | > 10 µM | > 10 µM | 0.2 | 0 | 0 | 0.1 | 0 | 104% | 96.9% | 105% | 89% | 95.1% | 96.8% | 101% | 95.1% | 97.7% | 106% | 101% | 98.1% | 103% | 100% | 103% | 93.8% | 101% | 98.8% | 101% | 87.2% | 92.5% | 101% | 110% | 108% | 87.4%
O=C1c2cccc3c2[C@H](CCC3)CN1[C@@H]1CN2CCC1CC2 [palonosetron] | > 10 µM | > 10 µM | > 10 µM | > 10 µM | > 10 µM | 0 | 0.5 | 0 | 0 | 0 | 106% | 99% | 91.3% | 100% | 98.8% | 99.7% | 103% | 103% | 99.3% | 82.4% | 98.9% | 97.5% | 99.5% | 100% | 94.2% | 105% | 97.5% | 90.8% | 96.8% | 102% | 94.4% | 90.2% | 88.6% | 96.1% | 88.9%
NC(=O)NC(=O)Cc1ccccc1 [phenacemide] | > 10 µM | > 10 µM | > 10 µM | > 10 µM | > 10 µM | 0 | 0 | 0 | 0 | 0 | 102% | 97.2% | 101% | 87.7% | 104% | 97.5% | 101% | 96.8% | 99.7% | 96.9% | 104% | 102% | 102% | 98.8% | 97.6% | 102% | 94.4% | 95.6% | 100% | 94.8% | 96.4% | 103% | 95.5% | 107% | 102%
CCC(c1ccccc1)c1c(O)c2ccccc2oc1=O (stereo not given) [phenprocoumon] | > 10 µM | > 10 µM | > 10 µM | > 10 µM | > 10 µM | 0 | 0 | 0 | 0 | 0 | 102% | 100% | 102% | 93.6% | 94.8% | 100% | 108% | 97.3% | 102% | 102% | 96.8% | 92.5% | 101% | 99.8% | 104% | 91.4% | 97.6% | 104% | 92.2% | 104% | 90.2% | 107% | 87.5% | 99.7% | 108%
O=C1NC(=O)C(c2ccccc2)(c2ccccc2)N1 [phenytoin] | > 10 µM | > 10 µM | > 10 µM | > 10 µM | > 10 µM | 0.3 | 0 | 0 | 0 | 0 | 102% | 96.1% | 97.8% | 93.5% | 84.9% | 96% | 103% | 100% | 98.4% | 100% | 97.7% | 104% | 96% | 101% | 98.9% | 97.9% | 95.9% | 88.6% | 101% | 99.3% | 108% | 94.8% | 99.5% | 95.8% | 101%
